Our source for the residual activity and inhibition values is ChEMBL document CHEMBL4507319 (2021).

The structures appear in SMILES notation.

The target in assay [1] is Casein kinase II subunit alpha' (Homo sapiens) (UniProt P19784). The settings on record: Compound concentration 1000.0 nM.
In assay [2] the target is Phosphatidylinositol 4,5-bisphosphate 3-kinase catalytic subunit alpha isoform (Homo sapiens) (UniProt P42336). The settings on record: Compound concentration 1000.0 nM.
Assay [3] has as its system Phosphatidylinositol 4,5-bisphosphate 3-kinase catalytic subunit alpha isoform (Homo sapiens), P42336 [I800L]. Conditions: Compound concentration 1000.0 nM.
For assay [4], the target named is Serine/threonine-protein kinase 26 (Homo sapiens) (UniProt Q9P289). The settings on record: Compound concentration 1000.0 nM.
Assay [5] deals with T1, Mitogen-activated protein kinase 12 (Homo sapiens) (UniProt P53778).
T1 sequence (whole entry): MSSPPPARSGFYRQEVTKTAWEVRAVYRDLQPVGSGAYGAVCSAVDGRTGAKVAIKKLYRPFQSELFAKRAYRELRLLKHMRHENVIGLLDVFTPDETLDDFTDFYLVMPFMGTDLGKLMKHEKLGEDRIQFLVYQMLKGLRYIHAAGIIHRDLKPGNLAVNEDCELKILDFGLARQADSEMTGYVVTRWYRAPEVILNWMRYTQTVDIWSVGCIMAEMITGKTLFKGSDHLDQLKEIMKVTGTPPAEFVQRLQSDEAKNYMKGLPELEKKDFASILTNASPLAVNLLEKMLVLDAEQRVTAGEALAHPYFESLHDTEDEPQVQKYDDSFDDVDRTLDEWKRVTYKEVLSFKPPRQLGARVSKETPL
Conditions: Compound concentration 1000.0 nM.

Assay [6] has as its target 5-hydroxytryptamine receptor 7 (Homo sapiens) (UniProt P34969). Conditions: Compound concentration 10.0 uM.
The target of assay [7] is STE20-like serine/threonine-protein kinase (Homo sapiens) (UniProt Q9H2G2). The settings on record: Compound concentration 1000.0 nM.
In assay [8] the target is 5'-AMP-activated protein kinase catalytic subunit alpha-2 (Homo sapiens, UniProt P54646). Conditions: Compound concentration 1000.0 nM.
Sequence of 5'-AMP-activated protein kinase catalytic subunit alpha-2 (P54646 whole entry, looked up): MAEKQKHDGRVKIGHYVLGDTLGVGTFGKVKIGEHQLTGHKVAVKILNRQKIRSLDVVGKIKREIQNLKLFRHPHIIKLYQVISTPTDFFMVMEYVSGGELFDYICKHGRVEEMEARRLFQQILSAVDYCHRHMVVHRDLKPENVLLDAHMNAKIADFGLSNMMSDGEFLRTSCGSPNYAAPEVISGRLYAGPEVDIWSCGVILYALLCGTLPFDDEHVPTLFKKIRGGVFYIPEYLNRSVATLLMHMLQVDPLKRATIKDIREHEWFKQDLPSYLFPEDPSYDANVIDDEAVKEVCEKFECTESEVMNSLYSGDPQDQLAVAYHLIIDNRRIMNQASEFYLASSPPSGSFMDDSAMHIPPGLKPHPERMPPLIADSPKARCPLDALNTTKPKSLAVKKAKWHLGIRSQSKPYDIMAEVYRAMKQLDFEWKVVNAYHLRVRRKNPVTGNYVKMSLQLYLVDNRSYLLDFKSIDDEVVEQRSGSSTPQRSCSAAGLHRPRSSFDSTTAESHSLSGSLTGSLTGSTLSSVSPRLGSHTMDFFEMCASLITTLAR
Assay [9] addresses T2, Inhibitor of nuclear factor kappa-B kinase subunit alpha (Homo sapiens) (UniProt O15111).
T2 sequence (whole entry): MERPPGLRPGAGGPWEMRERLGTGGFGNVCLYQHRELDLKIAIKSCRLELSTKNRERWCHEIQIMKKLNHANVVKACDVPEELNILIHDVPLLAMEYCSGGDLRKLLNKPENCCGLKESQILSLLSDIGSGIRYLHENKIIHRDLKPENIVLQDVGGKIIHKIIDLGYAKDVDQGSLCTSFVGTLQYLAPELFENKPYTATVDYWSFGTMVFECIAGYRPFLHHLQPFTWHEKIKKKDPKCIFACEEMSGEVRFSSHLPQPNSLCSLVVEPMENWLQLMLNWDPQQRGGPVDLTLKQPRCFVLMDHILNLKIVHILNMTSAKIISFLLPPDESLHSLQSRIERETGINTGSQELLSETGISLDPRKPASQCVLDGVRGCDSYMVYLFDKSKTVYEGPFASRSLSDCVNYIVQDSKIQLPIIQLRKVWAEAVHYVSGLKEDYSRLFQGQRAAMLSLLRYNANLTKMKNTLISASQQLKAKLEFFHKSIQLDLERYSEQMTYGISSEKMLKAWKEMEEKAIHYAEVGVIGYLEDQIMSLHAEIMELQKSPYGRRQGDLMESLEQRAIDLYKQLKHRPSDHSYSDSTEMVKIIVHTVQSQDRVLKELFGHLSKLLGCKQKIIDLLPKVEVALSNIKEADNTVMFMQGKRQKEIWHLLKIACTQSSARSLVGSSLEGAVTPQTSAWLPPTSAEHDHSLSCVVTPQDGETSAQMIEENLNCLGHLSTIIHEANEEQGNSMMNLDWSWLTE
Conditions: Compound concentration 1000.0 nM.

Assay [10] addresses Cyclin-dependent kinase 2 homolog (Plasmodium falciparum (isolate 3D7)) (UniProt P61075). Conditions: Compound concentration 1000.0 nM.
Assay [11] deals with Mu-type opioid receptor (Homo sapiens) (UniProt P35372). The settings on record: Compound concentration 10.0 uM.
Assay [12] deals with Rho-associated protein kinase 1 (Homo sapiens) (UniProt Q13464). The settings on record: Compound concentration 1000.0 nM.
Sequence of Rho-associated protein kinase 1 (Homo sapiens) (Q13464 2-1354 limits assumed): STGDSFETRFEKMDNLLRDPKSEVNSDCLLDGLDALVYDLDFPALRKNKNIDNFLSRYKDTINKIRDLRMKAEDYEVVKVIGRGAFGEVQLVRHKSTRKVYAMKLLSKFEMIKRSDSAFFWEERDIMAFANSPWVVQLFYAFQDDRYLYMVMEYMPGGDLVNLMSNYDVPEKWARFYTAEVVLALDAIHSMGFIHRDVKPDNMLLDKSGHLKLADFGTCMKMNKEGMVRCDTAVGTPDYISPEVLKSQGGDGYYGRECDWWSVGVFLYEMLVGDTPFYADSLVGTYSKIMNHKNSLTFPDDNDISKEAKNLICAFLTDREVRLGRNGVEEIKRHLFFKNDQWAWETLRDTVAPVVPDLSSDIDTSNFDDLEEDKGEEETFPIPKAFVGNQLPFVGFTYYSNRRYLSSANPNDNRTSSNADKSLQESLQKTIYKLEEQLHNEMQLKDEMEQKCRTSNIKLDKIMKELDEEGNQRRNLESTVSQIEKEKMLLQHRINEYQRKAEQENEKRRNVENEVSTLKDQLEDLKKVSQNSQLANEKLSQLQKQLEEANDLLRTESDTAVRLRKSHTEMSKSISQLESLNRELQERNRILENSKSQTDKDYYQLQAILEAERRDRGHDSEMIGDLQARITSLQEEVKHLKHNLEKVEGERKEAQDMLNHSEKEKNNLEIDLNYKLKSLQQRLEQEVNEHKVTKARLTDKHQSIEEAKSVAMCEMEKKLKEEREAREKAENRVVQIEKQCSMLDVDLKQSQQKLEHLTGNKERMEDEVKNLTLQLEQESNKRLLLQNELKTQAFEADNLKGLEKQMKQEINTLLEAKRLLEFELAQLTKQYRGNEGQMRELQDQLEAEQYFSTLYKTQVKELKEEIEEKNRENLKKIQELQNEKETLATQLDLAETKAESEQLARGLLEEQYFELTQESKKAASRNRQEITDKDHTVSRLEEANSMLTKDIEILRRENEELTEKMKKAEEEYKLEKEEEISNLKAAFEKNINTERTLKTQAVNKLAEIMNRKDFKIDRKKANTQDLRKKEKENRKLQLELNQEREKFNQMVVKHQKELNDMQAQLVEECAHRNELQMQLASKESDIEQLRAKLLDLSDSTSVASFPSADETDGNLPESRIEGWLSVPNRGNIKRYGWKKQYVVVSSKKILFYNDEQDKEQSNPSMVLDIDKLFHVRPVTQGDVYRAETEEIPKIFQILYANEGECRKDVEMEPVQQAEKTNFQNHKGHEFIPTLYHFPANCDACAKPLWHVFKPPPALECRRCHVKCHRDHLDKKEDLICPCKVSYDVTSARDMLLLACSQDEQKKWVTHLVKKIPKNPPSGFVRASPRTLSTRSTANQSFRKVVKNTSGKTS
The target of assay [13] is MAP kinase-interacting serine/threonine-protein kinase 2 (Homo sapiens) (UniProt Q9HBH9). Conditions: Compound concentration 1000.0 nM.
Assay [14] deals with Epidermal growth factor receptor (Homo sapiens), P00533 [G719S]. Conditions: Compound concentration 1000.0 nM.
Assay [15] deals with Proto-oncogene tyrosine-protein kinase receptor Ret (Homo sapiens), P07949 [M918T]. The settings on record: Compound concentration 1000.0 nM.
The target of assay [16] is RAF proto-oncogene serine/threonine-protein kinase (Homo sapiens) (UniProt P04049). Conditions: Compound concentration 1000.0 nM.
Assay [17] deals with Epidermal growth factor receptor (Homo sapiens), P00533 [L858R]. The settings on record: Compound concentration 1000.0 nM.
The target of assay [18] is Mitogen-activated protein kinase kinase kinase 9 (Homo sapiens) (UniProt P80192). Conditions: Compound concentration 1000.0 nM.
Sequence of Mitogen-activated protein kinase kinase kinase 9 (Homo sapiens) (P80192 whole entry, looked up): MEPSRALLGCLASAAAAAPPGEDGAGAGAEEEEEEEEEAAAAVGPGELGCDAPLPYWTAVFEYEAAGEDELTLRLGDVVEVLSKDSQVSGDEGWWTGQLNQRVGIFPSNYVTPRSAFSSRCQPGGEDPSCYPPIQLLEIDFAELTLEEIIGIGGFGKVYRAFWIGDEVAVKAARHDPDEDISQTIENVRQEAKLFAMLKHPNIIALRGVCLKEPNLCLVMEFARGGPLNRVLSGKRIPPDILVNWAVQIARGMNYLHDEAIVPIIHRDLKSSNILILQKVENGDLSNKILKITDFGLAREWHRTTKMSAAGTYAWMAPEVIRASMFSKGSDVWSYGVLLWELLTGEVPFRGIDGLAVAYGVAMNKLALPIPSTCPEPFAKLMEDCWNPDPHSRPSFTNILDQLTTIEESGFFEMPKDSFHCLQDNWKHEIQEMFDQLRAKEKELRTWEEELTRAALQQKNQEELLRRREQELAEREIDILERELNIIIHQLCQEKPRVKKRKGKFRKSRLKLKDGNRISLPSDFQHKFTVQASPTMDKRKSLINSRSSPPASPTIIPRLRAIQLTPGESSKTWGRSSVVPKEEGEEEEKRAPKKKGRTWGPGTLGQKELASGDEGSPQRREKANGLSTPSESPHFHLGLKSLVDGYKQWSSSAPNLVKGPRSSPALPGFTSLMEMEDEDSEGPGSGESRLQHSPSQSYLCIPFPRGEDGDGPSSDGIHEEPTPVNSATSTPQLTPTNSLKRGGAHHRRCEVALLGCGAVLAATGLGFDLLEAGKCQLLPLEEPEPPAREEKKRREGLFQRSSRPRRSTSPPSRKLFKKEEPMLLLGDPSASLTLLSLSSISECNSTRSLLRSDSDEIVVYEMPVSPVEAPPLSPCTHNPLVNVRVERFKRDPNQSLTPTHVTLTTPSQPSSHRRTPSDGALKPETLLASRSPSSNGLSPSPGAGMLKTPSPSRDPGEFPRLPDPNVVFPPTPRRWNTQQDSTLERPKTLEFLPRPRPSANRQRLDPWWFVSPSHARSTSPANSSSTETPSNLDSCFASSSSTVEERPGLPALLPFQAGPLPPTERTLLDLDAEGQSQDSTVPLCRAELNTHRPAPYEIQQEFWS
For assay [19], the target named is Ribosomal protein S6 kinase alpha-5 (Homo sapiens, UniProt O75582). Conditions: Compound concentration 1000.0 nM.
Assay [20] has as its system Tyrosine-protein kinase ABL1 (Homo sapiens), P00519 [F317I]. The settings on record: Compound concentration 1000.0 nM.

Sequence of Phosphatidylinositol 4,5-bisphosphate 3-kinase catalytic subunit alpha isoform (Homo sapiens) (P42336 whole entry, canonical isoform): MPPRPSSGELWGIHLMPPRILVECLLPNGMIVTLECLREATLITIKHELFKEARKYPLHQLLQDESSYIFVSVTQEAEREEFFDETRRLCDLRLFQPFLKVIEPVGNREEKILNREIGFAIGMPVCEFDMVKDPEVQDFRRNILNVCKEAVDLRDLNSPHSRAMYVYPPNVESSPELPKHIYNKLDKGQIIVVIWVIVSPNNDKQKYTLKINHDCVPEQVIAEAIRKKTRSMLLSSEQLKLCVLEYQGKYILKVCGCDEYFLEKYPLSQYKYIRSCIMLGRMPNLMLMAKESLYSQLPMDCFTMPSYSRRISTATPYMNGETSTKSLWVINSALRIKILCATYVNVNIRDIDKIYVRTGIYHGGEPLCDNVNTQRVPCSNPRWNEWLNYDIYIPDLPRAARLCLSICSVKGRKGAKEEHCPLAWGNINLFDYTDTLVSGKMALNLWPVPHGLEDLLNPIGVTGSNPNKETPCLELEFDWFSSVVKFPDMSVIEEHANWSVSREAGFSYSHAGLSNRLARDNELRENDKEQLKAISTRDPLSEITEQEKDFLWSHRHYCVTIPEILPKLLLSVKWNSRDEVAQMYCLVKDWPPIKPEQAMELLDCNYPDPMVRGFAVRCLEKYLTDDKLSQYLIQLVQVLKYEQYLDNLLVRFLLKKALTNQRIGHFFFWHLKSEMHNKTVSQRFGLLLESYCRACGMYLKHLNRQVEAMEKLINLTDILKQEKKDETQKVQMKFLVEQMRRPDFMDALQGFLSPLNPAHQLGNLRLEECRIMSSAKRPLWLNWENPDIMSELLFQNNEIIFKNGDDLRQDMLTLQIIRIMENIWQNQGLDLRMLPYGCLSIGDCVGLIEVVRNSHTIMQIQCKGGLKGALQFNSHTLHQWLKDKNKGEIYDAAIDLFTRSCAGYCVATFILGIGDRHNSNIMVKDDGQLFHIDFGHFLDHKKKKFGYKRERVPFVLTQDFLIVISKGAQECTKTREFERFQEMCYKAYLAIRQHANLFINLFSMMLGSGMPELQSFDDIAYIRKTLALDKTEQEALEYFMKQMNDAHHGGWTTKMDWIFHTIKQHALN
Sequence of Casein kinase II subunit alpha' (Homo sapiens) (P19784 whole entry, looked up, canonical isoform): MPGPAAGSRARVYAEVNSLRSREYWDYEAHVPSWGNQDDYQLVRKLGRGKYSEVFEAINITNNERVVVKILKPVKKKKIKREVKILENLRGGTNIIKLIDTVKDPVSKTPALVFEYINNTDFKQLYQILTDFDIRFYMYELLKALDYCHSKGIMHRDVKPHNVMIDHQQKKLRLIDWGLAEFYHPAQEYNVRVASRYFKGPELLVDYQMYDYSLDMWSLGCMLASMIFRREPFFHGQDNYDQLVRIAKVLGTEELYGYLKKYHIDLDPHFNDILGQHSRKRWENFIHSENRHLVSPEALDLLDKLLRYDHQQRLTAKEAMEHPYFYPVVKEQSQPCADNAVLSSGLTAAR
Sequence of Cyclin-dependent kinase 2 homolog (Plasmodium falciparum (isolate 3D7)) (P61075 whole entry): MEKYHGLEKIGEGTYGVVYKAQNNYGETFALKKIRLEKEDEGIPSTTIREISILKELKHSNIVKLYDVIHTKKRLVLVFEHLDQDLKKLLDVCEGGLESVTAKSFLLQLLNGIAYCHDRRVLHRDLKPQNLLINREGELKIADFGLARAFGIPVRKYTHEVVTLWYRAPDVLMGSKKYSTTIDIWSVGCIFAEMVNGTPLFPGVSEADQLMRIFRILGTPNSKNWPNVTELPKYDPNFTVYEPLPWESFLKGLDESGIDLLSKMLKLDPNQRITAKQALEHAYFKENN
Sequence of Phosphatidylinositol 4,5-bisphosphate 3-kinase catalytic subunit alpha isoform (Homo sapiens), P42336 [I800L] (P42336 whole entry I800L, canonical isoform): as the sequence (P42336 whole entry, canonical isoform) above, with I800L counted along it

Regarding `CCc1ccccc1C(=O)Nc1n[nH]c2c(C)c(F)c(C3C(C#N)=C(C)N(C)C(C)=C3C#N)cc12` [BAY-3827], the residual activity was 100% in assay [1]; 100% in [2]; 100% in assay [3]; 98% in assay [4]; 76% in assay [5]; 100% in [7]. Further, the residual activity is 0% in assay [8]; 87% in [9]; 100% in [10]; 100% in [12]; 98% in [13]; 61% in assay [14]. Besides, the residual activity was 64% in assay [15]; 63% in assay [16]; 93% in [17]; 92% in assay [18]; 90% in assay [19]; 100% in assay [20]. The inhibition (usually the change of the read-out against control, counted positive when it falls) in [6] is 13.9%; in [11] it was 30.5%.
As to `CC1=C(C#N)C(c2ccc3c(c2)c(NC(=O)c2ccccc2C)nn3C)C(C#N)=C(C)N1` [BAY-974], the residual activity in assay [1] was 100%; in assay [2], 100%; in assay [3], 93%; in assay [4] it was 100%; in assay [5], 68%; in assay [7], 88%. Moreover, the residual activity in [8] was 99%; in assay [9], 77%; in assay [10] it was 84%; in [12] it was 100%; in assay [13], 100%; in assay [14] it was 87%. The residual activity in assay [15] is 100%; in assay [16], 100%; in [17], 80%; in [18] it was 96%; in assay [19], 87%; in [20], 100%. The inhibition was 6.72% in [6] and 13.7% in [11].
